The test system of this data set is bruise.
Setting [1] is: lower concentrations within 2% to 20% by weight.

Molecules are shown by their SMILES. Read-outs that look alike come from different tables or passages of the source.

The text below walks through data of patent publication US20200138734A1, “TOPICAL FORMULATION FOR TREATING BRUISING” (priority 2018, published 2020).

`CCC(C)O` (stereo not drawn) [2-Butanol]: the bruise resolution result is, setting by setting: (2-Butanol alone in the topical formulation, without penetrant) “would not provide the bruise resolution”; (10% 2-Butanol by weight of topical formulation) “very good bruise resolution”. Also, the “side-effects (pain, itching, redness, exfoliation)” value (4% -12% 2-Butanol by weight) is listed as “resolved”. Moreover, under “higher concentrations within 2% to 20% by weight”, the “frequency and severity of side-effects, such as pain, itching, redness and exfoliation” value is recorded as “increased”. Besides, under setting [1], the “efficacy of bruise resolution” value is listed as “decreased”. Moreover, the “frequency and severity of side-effects” value under setting [1] is listed as “decreased”.
